According to ChEMBL document CHEMBL4715696, “In vitro synergistic anticancer activity of the combination of T-type calcium channel blocker and chemotherapeutic agent in A549 cells” (Bioorg Med Chem Lett, 2016):

Assays:
[1] = test system: A549; test: Potentiation of cisplatin-induced cell cycle arrest in human A549 cells assessed as accumulation at S phase at 2.5 uM in presence of cisplatin after 48 hrs by flow cytometric analysis (Rvb =15.8%); type: functional
[2] = test system: A549; test: Decrease in cell cycle associated protein expression in human A549 cells assessed as reduction in cyclin E expression at 10 uM by Western blot analysis; type: functional, cell-based; settings: time 6-48 hrs, TDE = time-dependent effect
[3] = test system: A549; test: Induction of cell cycle arrest in human A549 cells assessed as accumulation at G1 phase at 5 uM after 48 hrs by flow cytometric analysis (reference value: 57.8 to 65.5%); type: functional
[4] = Upregulation of p27KIP1 protein expression in human A549 cells assessed as fold change in expression at 10 uM after 12 hrs by Western blot analysis (reference value: 0.83); type: functional
[5] = test system: A549; test: Decrease in cell cycle associated protein expression in human A549 cells assessed as fold change in cyclin D3 expression at 10 uM after 12 hrs by Western blot analysis (reference value: 1.09); type: functional
[6] = test system: A549; test: Decrease in cell cycle associated protein expression in human A549 cells assessed as reduction in CDK2 expression after 48 hrs by Western blot analysis; type: functional, cell-based; settings: dose 2.5-10 µM
[7] = test system: A549; test: Induction of cell cycle arrest in human A549 cells assessed as accumulation at sub G1 phase at 5 uM after 48 hrs by flow cytometric analysis (reference value: 1.9 to 4.9%); type: functional
[8] = test system: A549; test: Potentiation of cisplatin-induced cell cycle arrest in human A549 cells assessed as accumulation at G1 phase at 10 uM in presence of cisplatin after 48 hrs by flow cytometric analysis (reference value: 14.4%); type: functional
[9] = test system: A549; test: Potentiation of etoposide-induced cell cycle arrest in human A549 cells assessed as accumulation at G2/M phase at 2.5 uM in presence of etoposide after 48 hrs by flow cytometric analysis (Rvb =18.9%); type: functional
[10] = test system: A549; test: Potentiation of cisplatin-induced cell cycle arrest in human A549 cells assessed as accumulation at S phase at 10 uM in presence of cisplatin after 48 hrs by flow cytometric analysis (Rvb =15.8%); type: functional
[11] = test system: A549; test: Decrease in cell cycle associated protein expression in human A549 cells assessed as fold change in cyclin E expression at 10 uM after 12 hrs by Western blot analysis (reference value: 0.55); type: functional
[12] = test system: A549; test: Decrease in cell cycle associated protein expression in human A549 cells assessed as fold change in CDK6 expression at 10 uM after 48 hrs by Western blot analysis (reference value: 0.7 to 1.05); type: functional
[13] = Metabolic stability in dog liver microsomes assessed as parent compound remaining at 1 uM measured for 30 mins; type: ADME, Canis lupus familiaris, Microsome; settings: read-out: Stabilty
[14] = test system: A549; test: Potentiation of etoposide-induced cell cycle arrest in human A549 cells assessed as accumulation at S phase at 2.5 uM in presence of etoposide after 48 hrs by flow cytometric analysis (Rvb =12.3%); type: functional
[15] = molecular target: CYP2C19 (Homo sapiens, UniProt P33261); test: Inhibition of human CYP2C19 assessed as residual activity at 10 uM measured after 15 mins relative to control; type: ADME; settings: read-out: Activity
[16] = test system: A549; test: Potentiation of etoposide-induced cell cycle arrest in human A549 cells assessed as accumulation at G2/M phase at 10 uM in presence of etoposide after 48 hrs by flow cytometric analysis (Rvb =18.9%); type: functional
[17] = test system: A549; test: Induction of cell cycle arrest in human A549 cells assessed as accumulation at S phase at 2.5 uM after 48 hrs by flow cytometric analysis (Rvb =10.4%); type: functional
[18] = test system: A549; test: Decrease in cell cycle associated protein expression in human A549 cells assessed as fold change in cyclin E expression at 10 uM after 48 hrs by Western blot analysis (reference value: 0.37 to 0.55); type: functional
[19] = molecular target: T1, CYP1A2 (Homo sapiens, UniProt P05177); test: Inhibition of human CYP1A2 assessed as residual activity at 10 uM measured after 15 mins relative to control; type: ADME; settings: read-out: Activity
T1 sequence (P05177 whole entry): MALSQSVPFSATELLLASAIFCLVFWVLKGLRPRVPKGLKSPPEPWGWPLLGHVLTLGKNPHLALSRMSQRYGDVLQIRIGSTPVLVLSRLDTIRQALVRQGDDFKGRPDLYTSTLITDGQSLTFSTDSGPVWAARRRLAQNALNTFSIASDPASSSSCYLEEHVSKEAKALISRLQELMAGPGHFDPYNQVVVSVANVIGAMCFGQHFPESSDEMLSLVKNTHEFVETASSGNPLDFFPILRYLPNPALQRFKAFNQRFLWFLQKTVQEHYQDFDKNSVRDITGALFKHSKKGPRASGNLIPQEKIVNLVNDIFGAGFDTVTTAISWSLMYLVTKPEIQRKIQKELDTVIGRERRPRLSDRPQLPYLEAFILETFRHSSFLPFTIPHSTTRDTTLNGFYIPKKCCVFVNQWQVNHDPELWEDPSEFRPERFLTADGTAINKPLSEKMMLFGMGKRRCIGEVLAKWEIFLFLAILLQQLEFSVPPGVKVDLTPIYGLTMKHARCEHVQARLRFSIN

[20] = test system: A549; test: Potentiation of etoposide-induced cell cycle arrest in human A549 cells assessed as accumulation at sub G1 phase at 10 uM in presence of etoposide after 48 hrs by flow cytometric analysis (Rvb =33 %); type: functional
[21] = Increase in recruitment of […] p27KIP1 to CDK2 in human A549 cells assessed as fold change at 10 uM incubated for 12 hrs by immunoprecipitation/immunoblot analysis (reference value: 0.43); type: functional
[22] = Metabolic stability in rat plasma assessed as parent compound remaining at 10 uM measured after 30 mins; type: ADME, cell-free; settings: read-out: Stabilty
[23] = test system: A549; test: Decrease in cell cycle associated protein expression in human A549 cells assessed as fold change in CDK2 expression at 10 uM after 48 hrs by Western blot analysis (reference value: 0.48 to 0.79); type: functional
[24] = test system: A549; test: Decrease in cell cycle associated protein expression in human A549 cells assessed as fold change in cyclin D3 expression at 10 uM after 48 hrs by Western blot analysis (reference value: 0.73 to 1.09); type: functional
[25] = test system: A549; test: Decrease in cell cycle associated protein expression in human A549 cells assessed as fold change in cyclin D3 expression at 10 uM after 6 hrs by Western blot analysis (reference value: 1.09); type: functional
[26] = test system: A549; test: Induction of cell cycle arrest in human A549 cells assessed as accumulation at S phase at 5 uM after 24 hrs by flow cytometric analysis (reference value: 17.6%); type: functional
[27] = test system: A549; test: Decrease in cell cycle associated protein expression in human A549 cells assessed as fold change in cyclin D2 expression at 10 uM after 24 hrs by Western blot analysis (reference value: 0.77); type: functional
[28] = test system: A549; test: Induction of apoptosis in human A549 cells assessed as late apoptotic cells at 10 uM incubated for 48 hrs by AnnexinV-FITC/propidium iodide staining based flow cytometry (reference value: 4%); type: functional
[29] = test system: A549; test: Decrease in cell cycle associated protein expression in human A549 cells assessed as fold change in CDK2 expression at 10 uM after 36 hrs by Western blot analysis (reference value: 0.79); type: functional

Chain of CYP2C19 (P33261 whole entry): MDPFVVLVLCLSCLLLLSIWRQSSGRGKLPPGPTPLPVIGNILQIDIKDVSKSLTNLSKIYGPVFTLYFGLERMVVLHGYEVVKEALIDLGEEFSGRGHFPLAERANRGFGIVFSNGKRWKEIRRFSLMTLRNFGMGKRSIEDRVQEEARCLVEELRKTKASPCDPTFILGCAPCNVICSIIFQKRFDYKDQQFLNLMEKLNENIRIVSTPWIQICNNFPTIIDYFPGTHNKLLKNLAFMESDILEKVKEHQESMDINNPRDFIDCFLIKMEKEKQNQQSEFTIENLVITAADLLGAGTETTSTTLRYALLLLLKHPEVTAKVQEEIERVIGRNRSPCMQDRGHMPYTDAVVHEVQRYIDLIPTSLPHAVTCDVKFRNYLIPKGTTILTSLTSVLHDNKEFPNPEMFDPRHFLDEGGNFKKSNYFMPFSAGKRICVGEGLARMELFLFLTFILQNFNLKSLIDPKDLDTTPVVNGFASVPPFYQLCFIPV

In the case of `CN(C)C(=O)NCCCN(C)C1=Nc2ccccc2C(CC(=O)NCc2ccc(F)cc2)N1c1ccc(C2CCCCC2)cc1` (centres undefined), the Activity [1] is reported as 19.2%, the Activity [2] is reported as “Tde” and the Activity [3] is reported as 67.7%. The “fold change (FC)” value [4] was 0.65, the “fold change (FC)” value [5] was 0.42 and the Activity [6] was “Dose-dependent effect”. The Activity [7] was 1%, the Activity [8] was 32.4% and the Activity [9] was 18.5%. For the same compound, the Activity [10] was 6.1%, the “fold change (FC)” value [11] was 0.13 and the “fold change (FC)” value [12] was 0.14. It also gave a remaining at 0.5 h, 1 µM [13] of 92.6%, an Activity [14] of 10.7% and an activity at 0.25 h, 10 µM [15] of 55.8%. For the same compound, the Activity [16] was 3.2%, the Activity [17] was 8.8% and the “fold change (FC)” value [18] was 0.01. For the same compound, the activity at 0.25 h, 10 µM [19] was 59.2%, the Activity [20] was 83.1% and the “fold change (FC)” value [21] was 0.6. For the same compound, the remaining at 0.5 h, 10 µM [22] was 49.4%, the “fold change (FC)” value [23] was 0.26 and the “fold change (FC)” value [24] was 0.55. The “fold change (FC)” value [25] was 1.23, the Activity [26] was 12.4% and the “fold change (FC)” value [27] was 0.43. For the same compound, the Activity [28] was 4.3% and the “fold change (FC)” value [29] was 0.71.
